Holding throughout (experiment): DTP human tumour cell line panel, 48 h
Assay [1] has as its system RXF 393.
In assay [2] the test system is EKVX.
The test system of assay [3] is UO-31.
The test system of assay [4] is OVCAR-8.
In assay [5] the test system is 786-0.
Assay [6] relates to Hs-578T.
Assay [7] relates to CAKI-1.
Assay [8] relates to T47D.
In assay [9] the test system is OVCAR-4.
The test system of assay [10] is MOLT-4.
Assay [11] relates to HCT-116.
The subject of assay [12] is CCRF-CEM.
Assay [13] has as its system NCI/ADR-RES.
In assay [14] the test system is PC-3.
The subject of assay [15] is SF-268.
Assay [16] relates to A549.
Assay [17] concerns U-251.
The test system of assay [18] is OVCAR-5.
In assay [19] the test system is A498.
Assay [20] deals with BT-549.

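A five-concentration, 48-hour dose response in 96-well plates underlies each endpoint, interpolated linearly between surrounding concentrations. GI50 marks 50% less growth.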 The source made the active and inactive calls. Cut-off read from the data, not from the text of the source: active = GI50 up to about 1.1 µM and inactive = higher. Bounds are passed on as bounds.

A word on the GI50: it is the concentration that inhibits growth by half. Consider `CC1(C)[N+]([O-])=[N+]([O-])C1(Br)c1ccccc1` (stereo unspecified), for which the GI50 is 25.8 µM (inactive) in [1]; > 100 µM (inactive) in assay [2]; 28.8 µM (inactive) in assay [3]; > 100 µM (inactive) in [4]; 68.9 µM (inactive) in [5]; > 100 µM (inactive) in assay [6]. For the same molecule, the GI50 in [7] is > 100 µM (inactive); in [8], > 100 µM (inactive); in assay [9], 82.2 µM (inactive); in [10], 45.4 µM (inactive); in assay [11] it was > 100 µM (inactive); in assay [12], 39.9 µM (inactive). Also, the GI50 in assay [13] is 43.9 µM (inactive); in [14], > 100 µM (inactive); in [15] it was 65.3 µM (inactive); in assay [16], > 100 µM (inactive); in [17], > 100 µM (inactive); in assay [18], > 100 µM (inactive).

`NCCCCc1cc(O)c2c(c1O)C(=O)c1ccccc1C2=O`: the GI50 in assay [1] is 12.9 µM (inactive); in assay [2] it was 17.1 µM (inactive); in assay [3], 6.73 µM (inactive); in assay [4], 5.09 µM (inactive); in [5], 6 µM (inactive); in assay [7], 12.6 µM (inactive). For the same molecule, the GI50 is 18.1 µM (inactive) in assay [8]; 15.4 µM (inactive) in assay [9]; 2.81 µM (inactive) in assay [10]; 4.75 µM (inactive) in [11]; 3.77 µM (inactive) in assay [12]; 18.2 µM (inactive) in assay [19]. The GI50 in assay [13] was 12.6 µM (inactive); in assay [14], 10.4 µM (inactive); in assay [15], 13.8 µM (inactive); in assay [16], 5.05 µM (inactive); in assay [20] it was 22.2 µM (inactive); in assay [17], 9.75 µM (inactive). In assay [18], the GI50 is 13.3 µM (inactive).

On to `C=C(C)[C@H]1CC[C@@]23O[C@@H]2[C@@H](C[C@@]2(C)CC(=O)[C@H](CC(=O)C1)O2)OC(=O)[C@@]12CC[C@H](C(=C)C)CC(=O)C[C@H]4O[C@](C)(CC4=O)C[C@@H](OC3=O)[C@@H]1O2` [SINGARDIN], for which the GI50 in assay [1], in [2], in assay [3], in assay [4], in [5] and in assay [7] was > 100 µM (inactive) in each case. Moreover, the GI50 in assay [8] is > 100 µM (inactive); in [9] it was > 100 µM (inactive); in assay [10], > 100 µM (inactive); in assay [11], > 100 µM (inactive); in assay [12], 91.8 µM (inactive); in [19], > 100 µM (inactive). The GI50 in assay [13], in [14], in [16], in [17] and in [18] was > 100 µM (inactive) each time.

On to `Cn1c2ccccc2n2c(=O)c3cccnc3c(C#N)c12`, for which the GI50 is > 100 µM (inactive) in [1]; > 100 µM (inactive) in [2]; 40.3 µM (inactive) in assay [4]; > 100 µM (inactive) in assay [5]; > 100 µM (inactive) in assay [7]; > 100 µM (inactive) in assay [8]. The GI50 in assay [9] is > 100 µM (inactive); in assay [10] it was 7.45 µM (inactive); in [11], 94.2 µM (inactive); in assay [19], > 100 µM (inactive); in [13], 70.3 µM (inactive); in [15], > 100 µM (inactive). Besides, the GI50 in [20] is 17.5 µM (inactive); in assay [17] it was > 100 µM (inactive); in assay [18], > 100 µM (inactive).

Regarding `NC(=O)CC1(O)C=CC(=O)C=C1`, the GI50 in [1] is > 100 µM (inactive); in assay [2], > 100 µM (inactive); in [3], > 100 µM (inactive); in assay [4], > 100 µM (inactive); in assay [5], > 100 µM (inactive); in assay [7] it was 41.9 µM (inactive). Moreover, the GI50 in [8], in assay [9], in [10], in assay [11], in assay [12] and in [19] was > 100 µM (inactive) throughout. The GI50 in assay [13], in [14], in assay [16], in assay [20], in assay [17] and in assay [18] was > 100 µM (inactive) each time.

On to `O=C(Cc1ccccc1)NN1C(=O)/C(=C\c2ccc([N+](=O)[O-])cc2)S/C1=N\c1ccccc1`, for which the GI50 is > 100 µM (inactive) in [1]; > 100 µM (inactive) in assay [2]; > 100 µM (inactive) in assay [3]; 77.6 µM (inactive) in assay [4]; > 100 µM (inactive) in assay [5]; > 100 µM (inactive) in assay [6]. Besides, the GI50 is 62.1 µM (inactive) in assay [8]; > 100 µM (inactive) in [9]; 55 µM (inactive) in assay [10]; > 100 µM (inactive) in assay [11]; 68.9 µM (inactive) in [12]; > 100 µM (inactive) in assay [19]. Moreover, the GI50 in assay [13], in assay [15], in assay [16], in assay [17] and in assay [18] was > 100 µM (inactive) in each case.

For `Oc1cn(-c2ccc(Cl)cc2)nc1-c1nnc(Nc2ccccc2)o1`, the GI50 in assay [1] was 16 µM (inactive); in assay [2], 23.9 µM (inactive); in [3] it was 14.3 µM (inactive); in [4] it was 20.9 µM (inactive); in [5] it was 16.6 µM (inactive); in [6] it was 24.1 µM (inactive). Also, the GI50 in assay [7] is 32.3 µM (inactive); in [8] it was 23 µM (inactive); in assay [9], 34.8 µM (inactive); in assay [11] it was 16.1 µM (inactive); in assay [19], 12.6 µM (inactive); in assay [13], 14.9 µM (inactive). Also, the GI50 in assay [15] is 14.6 µM (inactive); in [16], 20.4 µM (inactive); in [17], 17.5 µM (inactive); in assay [18], 88.7 µM (inactive).

`Cn1c2ccccc2n2c3ncccc3c(=O)cc12`: the GI50 in [1] was 62.8 µM (inactive); in assay [2] it was 16.3 µM (inactive); in assay [3], 26.3 µM (inactive); in assay [4] it was 46.3 µM (inactive); in [5], 37.3 µM (inactive); in assay [7], 36.2 µM (inactive). The GI50 in [8] was 55.7 µM (inactive); in assay [9], > 100 µM (inactive); in assay [10], 36.9 µM (inactive); in assay [11] it was 15 µM (inactive); in assay [19], 24.6 µM (inactive); in [13], 50.4 µM (inactive). Further, the GI50 is 64.4 µM (inactive) in [15]; 20.2 µM (inactive) in assay [16]; 65.8 µM (inactive) in assay [20]; 40.4 µM (inactive) in [17]; > 100 µM (inactive) in [18].

In the case of `COc1ccc(-c2nc(-c3cnccn3)n(C/C=C/c3ccccc3)n2)cc1`, the GI50 is 49.2 µM (inactive) in assay [3]; 47.9 µM (inactive) in assay [4]; 17.3 µM (inactive) in assay [5]; 48.2 µM (inactive) in assay [8]; 21.3 µM (inactive) in assay [9]; > 100 µM (inactive) in assay [10]. The GI50 in assay [11] is 92.3 µM (inactive); in [12], > 100 µM (inactive); in assay [13], 83.4 µM (inactive); in assay [14], > 100 µM (inactive); in assay [16], 51.6 µM (inactive); in assay [20], 40.7 µM (inactive). The results for the GI50 in [17] and in assay [18] were 46.7 µM (inactive) and > 100 µM (inactive), respectively.

Take `Cc1cccc2c(NCCN(C)C)c3cccc(C(=O)NCCN(C)C)c3nc12`: the 50% growth inhibitory concentration (GI50) in assay [1] was 0.475 µM (active); in assay [2], 0.383 µM (active); in assay [3], 0.326 µM (active); in [4], 0.107 µM (active); in [5] it was 0.0783 µM (active); in assay [6], 0.495 µM (active). The 50% growth inhibitory concentration (GI50) is 0.187 µM (active) in [7]; 1.81 µM (inactive) in assay [8]; 0.207 µM (active) in [9]; 0.0262 µM (active) in [10]; 0.0673 µM (active) in [11]; 0.156 µM (active) in assay [12]. The 50% growth inhibitory concentration (GI50) in assay [19] was 0.918 µM (active); in assay [13], 0.446 µM (active); in assay [14] it was 0.356 µM (active); in [15] it was 0.316 µM (active); in [16] it was 0.107 µM (active); in assay [17] it was 0.139 µM (active). Moreover, the GI50 in assay [18] was 1.27 µM (inactive).

For `C=CCCCN1C(=O)C2C3c4ccccc4C(C=O)(c4ccccc43)C2C1=O` (stereo unspecified), the GI50 is 6.03 µM (inactive) in assay [2]; 10.7 µM (inactive) in [3]; 13.4 µM (inactive) in [4]; 13.3 µM (inactive) in assay [5]; 16 µM (inactive) in assay [7]; 8.91 µM (inactive) in assay [8]. The GI50 is 11.4 µM (inactive) in [9]; 4.57 µM (inactive) in [10]; 3.13 µM (inactive) in assay [11]; 3.58 µM (inactive) in assay [12]; 10.9 µM (inactive) in assay [13]; 6.18 µM (inactive) in assay [14]. In addition, the GI50 in assay [15] is 14.5 µM (inactive); in assay [16], 15.2 µM (inactive); in [17] it was 11.2 µM (inactive); in assay [18], 18.9 µM (inactive).

The values are drawn from ChEMBL document CHEMBL1201862, “PubChem BioAssay data set” (2004).
